Values of other authors in patent US20100028912A1, “IMAGING USING RADIOACTIVE MONOCATIONS IN COMBINATION WITH A RECEPTOR BINDING LIGAND THAT STIMULATES THE INFLUX OF CATIONS” (BRACCO IMAGING S.P.A., priority 2006, published 2010).

Tests used:
Na+-K+ pump = conditions: guinea pig pancreatic acinar cells in vitro
[1] = tested on: guinea pig tracheal smooth muscle cells; conditions: cultured guinea pig tracheal smooth muscle cells
[2] = tested on: rat vascular smooth muscle cells; conditions: rat vascular smooth muscle cells in culture
[3] = tested on: quiescent Swiss 3T3 cells; conditions: cells treated with Na+/K+ ATPase pump inhibitor
[4] = tested on: Na+-K+-2Cl- cotransporter (NKCC); conditions: acute cell exposure; rat L6 skeletal muscle cells
[5] = tested on: alpha(1)-adrenoceptors (AR); conditions: 30 μM; isolated perfused rat hearts and isolated cardiomyocytes

## CSCC[C@H](NC(=O)[C@H](Cc1ccc(OS(=O)(=O)O)cc1)NC(=O)[C@@H](N)CC(=O)O)C(=O)NCC(=O)N[C@@H](Cc1c[nH]c2ccccc12)C(=O)N[C@@H](CCSC)C(=O)N[C@@H](CC(=O)O)C(=O)N[C@@H](Cc1ccccc1)C(N)=O [CCK-8, cholecystokinin octapeptide]
Na+-K+ pump
  stimulation of ouabain-sensitive 86Rb+ uptake: approximately 60%

## NCCc1c[nH]c2ccc(O)cc12 [Serotonin, 5-hydroxytryptamine]
[1]
  uptake of 86Rb+: increases

## C[N+](C)(C)CCOC(N)=O [Carbachol]
Na+-K+ pump
  stimulation of ouabain-sensitive 86Rb+ uptake: approximately 60%

## Cn1c(=O)c2[nH]cnc2n(C)c1=O [theophylline]
Na+-K+ pump
  increase of Na+-K+ pump activity (as measured by ouabain-sensitive 86Rb+ uptake): approximately 40%

## Platelet-derived growth factor
[2]
  influx of 86Rb: acute increase

## C[C@@H]1O[C@@H](O[C@H]2C[C@@H](O)[C@]3(CO)[C@H]4[C@H](O)C[C@]5(C)[C@@H](C6=CC(=O)OC6)CC[C@]5(O)[C@@H]4CC[C@]3(O)C2)[C@H](O)[C@H](O)[C@H]1O [ouabain]
[3]
  effect on bombesin stimulation of 86Rb+ uptake: virtually abolished

## CCCC(=O)Nc1ncnc2c1ncn2[C@@H]1O[C@@H]2COP(=O)(O)O[C@H]2[C@H]1OC(=O)CCC [dibutyryl cAMP]
Na+-K+ pump
  increase of Na+-K+ pump activity (as measured by ouabain-sensitive 86Rb+ uptake): approximately 40%

## Secretin
Na+-K+ pump
  increase of Na+-K+ pump activity (as measured by ouabain-sensitive 86Rb+ uptake): approximately 40%

## insulin
[4]
  stimulation of NKCC-mediated 86Rb+ influx: ~1.6 fold

## CNC[C@H](O)c1cccc(O)c1 [phenylephrine]
[5]
  86Rb+ influx into myocardial cells: increased
